Data taken from PubChem BioAssay AID330 (DTP/NCI, 2004).
Where “and” joins values, the source holds several entries; their conditions need not be identical. Identical values can stand only once. Toxic doses and inconclusive results are not listed.

Test system: P388 leukemia ip, CD2F1 mice, survival T/C
Assay: NCI In Vivo Anticancer Drug Screen. Data for tumor model P388 Leukemia (intraperitoneal) in CD2F1 (CDF1) mice
Conditions: endpoint: median survival time, higher = longer survival
Summary of the method: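 Mice carrying the transplanted tumor received test compound or vehicle. Survival was recorded in each group, and the value is the treated-group measurement divided by that of the vehicle-treated control group.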

[1] = dose: 25.0 mg/kg/injection, schedule: Q01DX005 (ip), vehicle: saline with Tween-80
[2] = dose: 50.0 mg/kg/injection, schedule: Q01DX005 (ip), vehicle: saline with Tween-80
[3] = dose: 100.0 mg/kg/injection, schedule: Q01DX005 (ip), vehicle: saline with Tween-80
[4] = dose: 200.0 mg/kg/injection, schedule: Q01DX005 (ip), vehicle: saline with Tween-80
[5] = dose: 12.5 mg/kg/injection, schedule: Q01DX009 (ip), vehicle: saline with Tween-80
[6] = dose: 25.0 mg/kg/injection, schedule: Q01DX009 (ip), vehicle: saline with Tween-80
[7] = dose: 50.0 mg/kg/injection, schedule: Q01DX009 (ip), vehicle: saline with Tween-80
[8] = dose: 100.0 mg/kg/injection, schedule: Q01DX009 (ip), vehicle: Klucel (hydroxypropylcellulose) (HPC)
[9] = dose: 100.0 mg/kg/injection, schedule: Q04DX002 (ip), vehicle: saline with Tween-80
[10] = dose: 200.0 mg/kg/injection, schedule: Q04DX002 (ip), vehicle: saline with Tween-80
[11] = dose: 400.0 mg/kg/injection, schedule: Q04DX002 (ip), vehicle: saline with Tween-80
[12] = dose: 25.0 mg/kg/injection, schedule: Q01DX009 (ip), vehicle: saline
[13] = dose: 50.0 mg/kg/injection, schedule: Q01DX009 (ip), vehicle: saline
[14] = dose: 100.0 mg/kg/injection, schedule: Q01DX009 (ip), vehicle: saline
[15] = dose: 200.0 mg/kg/injection, schedule: Q01DX009 (ip), vehicle: saline
[16] = dose: 50.0 mg/kg/injection, schedule: Q01DX005 (ip), vehicle: Klucel (hydroxypropylcellulose) (HPC)
[17] = dose: 100.0 mg/kg/injection, schedule: Q01DX009 (ip), vehicle: saline with Tween-80
[18] = dose: 200.0 mg/kg/injection, schedule: Q01DX009 (ip), vehicle: saline with Tween-80
[19] = dose: 12.5 mg/kg/injection, schedule: Q01DX009 (ip), vehicle: saline

SMILES: Cc1ccc(S(=O)(=O)/C=C2\COc3ccccc3C2=O)cc1
- T/C (dose: 100.0 mg/kg/injection, schedule: Q04DX002 (ip), vehicle: saline): 100 % of control
- T/C (dose: 200.0 mg/kg/injection, schedule: Q04DX002 (ip), vehicle: saline): 100 % of control
- T/C (dose: 400.0 mg/kg/injection, schedule: Q04DX002 (ip), vehicle: saline): 97 % of control

SMILES: CC(C)(C)c1cc(C(O)(C(F)(F)F)C(F)(F)F)c(S)c(C(O)(C(F)(F)F)C(F)(F)F)c1
- T/C (dose: 3.12 mg/kg/injection, schedule: Q01DX005 (ip), vehicle: suspension in saline): 103 % of control
- T/C (dose: 6.25 mg/kg/injection, schedule: Q01DX005 (ip), vehicle: suspension in saline): 103 % of control
- T/C (dose: 12.5 mg/kg/injection, schedule: Q01DX005 (ip), vehicle: suspension in saline): 103 % of control
- T/C (dose: 25.0 mg/kg/injection, schedule: Q01DX005 (ip), vehicle: suspension in saline): 110 % of control and 112 % of control

SMILES: O=C1C=CC(=Nc2cc3c(cc2Br)-c2ccccc2C3=O)O1
- T/C (dose: 3.12 mg/kg/injection, schedule: Q01DX005 (ip), vehicle: saline with Tween-80): 100 % of control and 98 % of control
- T/C (dose: 6.25 mg/kg/injection, schedule: Q01DX005 (ip), vehicle: saline with Tween-80): 100 % of control and 104 % of control
- T/C (dose: 12.5 mg/kg/injection, schedule: Q01DX005 (ip), vehicle: saline with Tween-80): 104 % of control and 105 % of control
- T/C [1]: 104 % of control and 106 % of control and 117 % of control
- T/C [2]: 103 % of control and 105 % of control
- T/C [3]: 104 % of control

SMILES: CC(C)NC(=O)OCc1c(COC(=O)NC(C)C)c2n(c1-c1ccc(Cl)c(Cl)c1)CCS2(=O)=O
- T/C [1]: 106 % of control
- T/C [2]: 97 % of control
- T/C [3]: 88 % of control
- T/C [4]: 86 % of control

SMILES: CC(=O)c1ccc[n+](CCc2c[nH]c3ccccc23)c1
- T/C [5]: 104 % of control
- T/C [6]: 113 % of control
- T/C [7]: 109 % of control

SMILES: Cc1c(CN2CCOC(c3ccccc3)C2C)c(=O)n(-c2ccccc2)n1C (configuration not stated)
- T/C (dose: 50.0 mg/kg/injection, schedule: Q01DX009 (ip), vehicle: Klucel (hydroxypropylcellulose) (HPC)): 93 % of control
- T/C [8]: 103 % of control

SMILES: O=C(NNc1ccc(F)cc1)C12CC3CC(CC(C3)C1)C2
- T/C [5]: 103 % of control
- T/C [6]: 99 % of control
- T/C [7]: 87 % of control

SMILES: COC(=O)c1nnn(-c2cc(Cl)ccc2Cl)c1N
- T/C (dose: 60.0 mg/kg/injection, schedule: Q01DX005 (ip), vehicle: saline with Tween-80): 91 % of control

SMILES: CCSC(=O)OCC(F)([N+](=O)[O-])[N+](=O)[O-]
- T/C (dose: 100.0 mg/kg/injection, schedule: Q04DX003 (ip), vehicle: saline): 108 % of control
- T/C (dose: 200.0 mg/kg/injection, schedule: Q04DX003 (ip), vehicle: saline): 100 % of control
- T/C (dose: 400.0 mg/kg/injection, schedule: Q04DX003 (ip), vehicle: saline): 104 % of control

SMILES: CC(C)(C)C1=CP(=O)(c2ccccc2)C=C(C(C)(C)C)N1
- T/C [2]: 106 % of control
- T/C [3]: 108 % of control
- T/C [4]: 98 % of control

SMILES: CC(C)(O)/C=C/C(=O)[C@](C)(O)[C@H]1[C@H](O)C[C@@]2(C)[C@@H]3CC=C4[C@@H](C=C(O)C(=O)C4(C)C)[C@]3(C)C(=O)C[C@]12C
- T/C (dose: 0.25 mg/kg/injection, schedule: Q01DX005 (ip), vehicle: water): 112 % of control
- T/C (dose: 0.25 mg/kg/injection, schedule: Q01DX010 (ip), vehicle: saline): 100 % of control
- T/C (dose: 0.5 mg/kg/injection, schedule: Q01DX005 (ip), vehicle: water): 100 % of control
- T/C (dose: 0.5 mg/kg/injection, schedule: Q01DX010 (ip), vehicle: saline): 104 % of control
- T/C (dose: 1.0 mg/kg/injection, schedule: Q01DX005 (ip), vehicle: water): 105 % of control
- T/C (dose: 1.0 mg/kg/injection, schedule: Q01DX010 (ip), vehicle: saline): 109 % of control
- T/C (dose: 2.0 mg/kg/injection, schedule: Q01DX005 (ip), vehicle: water): 105 % of control

SMILES: FC(F)(F)COc1ccc(-c2nnc(-c3ccc(OCC(F)(F)F)cc3)o2)cc1
- T/C [9]: 90 % of control
- T/C [10]: 87 % of control
- T/C [11]: 86 % of control

SMILES: COc1ccc(CCN2C(=O)C(=O)N(c3cccc(Cl)c3)C2=O)cc1OC
- T/C [8]: 86 % of control
- T/C (dose: 200.0 mg/kg/injection, schedule: Q01DX009 (ip), vehicle: Klucel (hydroxypropylcellulose) (HPC)): 92 % of control

SMILES: O=CCSC(=S)NNc1ccccc1
- T/C [12]: 103 % of control
- T/C [13]: 90 % of control
- T/C [14]: 105 % of control
- T/C [15]: 96 % of control

SMILES: Cc1cn(C2CC(O)C(CS)O2)c(=O)[nH]c1=O (configuration not stated)
- T/C [2]: 104 % of control
- T/C [3]: 105 % of control
- T/C [4]: 103 % of control

SMILES: CC1(Oc2ccccc2)OC(=O)c2ccccc2O1 (configuration not stated)
- T/C [2]: 96 % of control
- T/C [3]: 104 % of control
- T/C [4]: 95 % of control

SMILES: C1CN1P1(N2CC2)=NP(N2CC2)(N2CC2)=NP(N2CC2)(N2CC2)=NP(N2CC2)(N2CC2)=N1
- T/C (dose: 5.0 mg/kg/injection, schedule: Q01DX009 (ip), vehicle: saline): 195 % of control
- T/C (dose: 10.0 mg/kg/injection, schedule: Q01DX009 (ip), vehicle: saline): 222 % of control

SMILES: c1ccc(CNSC(c2ccccc2)(c2ccccc2)c2ccccc2)cc1
- T/C [9]: 101 % of control
- T/C [10]: 102 % of control
- T/C [11]: 92 % of control

SMILES: CCOC(=O)Cn1cc([N+](=O)[O-])sc1=NC(=O)c1ccco1
- T/C (dose: 100.0 mg/kg/injection, schedule: Q01DX001 (ip), vehicle: Klucel (hydroxypropylcellulose) (HPC)): 90 % of control
- T/C (dose: 200.0 mg/kg/injection, schedule: Q01DX001 (ip), vehicle: Klucel (hydroxypropylcellulose) (HPC)): 98 % of control
- T/C (dose: 400.0 mg/kg/injection, schedule: Q01DX001 (ip), vehicle: Klucel (hydroxypropylcellulose) (HPC)): 97 % of control

SMILES: CC(=O)OCC1OC(c2ccccc2)C/C(=N/O)C1OC(C)=O (configuration not stated)
- T/C [16]: 96 % of control
- T/C (dose: 100.0 mg/kg/injection, schedule: Q01DX005 (ip), vehicle: Klucel (hydroxypropylcellulose) (HPC)): 93 % of control
- T/C (dose: 200.0 mg/kg/injection, schedule: Q01DX005 (ip), vehicle: Klucel (hydroxypropylcellulose) (HPC)): 94 % of control

SMILES: C=CCN1Cc2ccccc2-c2ccccc2C1
- T/C [13]: 94 % of control
- T/C [14]: 106 % of control
- T/C [15]: 108 % of control

SMILES: COC(=O)Cc1nc2c(=O)[nH]c(N)nc2[nH]c1=O
- T/C (dose: 12.5 mg/kg/injection, schedule: Q01DX005 (ip), vehicle: Klucel (hydroxypropylcellulose) (HPC)): 95 % of control
- T/C (dose: 25.0 mg/kg/injection, schedule: Q01DX005 (ip), vehicle: Klucel (hydroxypropylcellulose) (HPC)): 96 % of control
- T/C [16]: 102 % of control and 104 % of control

SMILES: CC(C)S(=O)(=O)/C(Cl)=C(/Cl)C(Cl)=C(Cl)Cl
- T/C [5]: 100 % of control
- T/C [6]: 109 % of control
- T/C [7]: 95 % of control

SMILES: COc1cc2c(cc1OC)C(CCCCCCCC1NCCc3cc(OC)c(OC)cc31)NCC2 (configuration not stated)
- T/C (dose: 12.5 mg/kg/injection, schedule: Q01DX005 (ip), vehicle: saline): 102 % of control
- T/C (dose: 25.0 mg/kg/injection, schedule: Q01DX005 (ip), vehicle: saline): 96 % of control
- T/C (dose: 50.0 mg/kg/injection, schedule: Q01DX005 (ip), vehicle: saline): 100 % of control and 101 % of control

SMILES: CC(=O)N1CCNC(=O)/C1=C1\CCOC1=O
- T/C [7]: 99 % of control
- T/C [17]: 101 % of control
- T/C [18]: 110 % of control

SMILES: CCCCCCCCCC[N+]1([O-])CCCCCC1
- T/C [19]: 100 % of control
- T/C [12]: 106 % of control
- T/C [13]: 94 % of control

SMILES: CCCCCCCCCCCCCCCCCCOC(=O)C(N)CCCCN (configuration not stated)
- T/C (dose: 15.0 mg/kg/injection, schedule: Q01DX005 (ip), vehicle: saline): 96 % of control
- T/C (dose: 30.0 mg/kg/injection, schedule: Q01DX005 (ip), vehicle: saline): 110 % of control
- T/C (dose: 60.0 mg/kg/injection, schedule: Q01DX005 (ip), vehicle: saline): 109 % of control and 111 % of control

SMILES: CC(C)OC1CC(C)(C)c2c(-c3ccccc3)nn(-c3ccccc3)c2O1 (configuration not stated)
- T/C [7]: 109 % of control
- T/C [17]: 98 % of control
- T/C [18]: 107 % of control

SMILES: CCOC(=O)OC(C#N)(c1ccc([N+](=O)[O-])cc1)c1nccc2ccccc12 (configuration not stated)
- T/C [19]: 93 % of control
- T/C [12]: 97 % of control
- T/C (dose: 50.0 mg/kg/injection, schedule: Q01DX009 (ip), vehicle: suspension in saline): 87 % of control
